Test results published in PubChem BioAssay AID330 (DTP/NCI, 2004).
Where “and” joins values, the source holds several entries; their conditions need not be identical. Equal values may be shown once. Inconclusive results and toxic doses are left out.

Test system: P388 leukemia ip, CD2F1 mice, survival T/C
Experiment: NCI In Vivo Anticancer Drug Screen. Data for tumor model P388 Leukemia (intraperitoneal) in CD2F1 (CDF1) mice
Conditions: endpoint: median survival time, higher = longer survival
Outline: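 Mice carrying the transplanted tumor received test compound or vehicle. Survival was recorded in each group, and the value is the treated-group measurement divided by that of the vehicle-treated control group.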

[1] = dose: 50.0 mg/kg/injection, schedule: Q04DX002 (ip), vehicle: saline with Tween-80
[2] = dose: 100.0 mg/kg/injection, schedule: Q04DX002 (ip), vehicle: saline with Tween-80
[3] = dose: 25.0 mg/kg/injection, schedule: Q01DX005 (ip), vehicle: saline with Tween-80
[4] = dose: 50.0 mg/kg/injection, schedule: Q01DX005 (ip), vehicle: saline with Tween-80
[5] = dose: 100.0 mg/kg/injection, schedule: Q01DX005 (ip), vehicle: saline with Tween-80
[6] = dose: 200.0 mg/kg/injection, schedule: Q01DX005 (ip), vehicle: saline with Tween-80
[7] = dose: 50.0 mg/kg/injection, schedule: Q01DX005 (ip), vehicle: Klucel (hydroxypropylcellulose) (HPC)
[8] = dose: 100.0 mg/kg/injection, schedule: Q01DX005 (ip), vehicle: Klucel (hydroxypropylcellulose) (HPC)
[9] = dose: 200.0 mg/kg/injection, schedule: Q01DX005 (ip), vehicle: Klucel (hydroxypropylcellulose) (HPC)

Cc1ccc(C)c(S(=O)(=O)Nc2c([N+](=O)[O-])cc([N+](=O)[O-])c3ccccc23)c1
T/C [1]: 95 % of control
T/C [2]: 88 % of control

NC(=O)C1=CC2C3C=CC2(O)C(=O)OC3O1 (centres undefined)
T/C (dose: 7.5 mg/kg/injection, schedule: Q01DX005 (ip), vehicle: Klucel (hydroxypropylcellulose) (HPC)): 114 % of control and 119 % of control
T/C (dose: 30.0 mg/kg/injection, schedule: Q01DX005 (ip), vehicle: Klucel (hydroxypropylcellulose) (HPC)): 158 % of control

Cn1c(=O)c2c(=S)sc(=S)[nH]c2n(C)c1=O
T/C (dose: 25.0 mg/kg/injection, schedule: Q04DX002 (ip), vehicle: saline with Tween-80): 106 % of control
T/C [1]: 106 % of control
T/C [2]: 106 % of control

O=C1CN(c2ccccc2)C(=O)CN1/N=C/c1ccco1
T/C (dose: 12.5 mg/kg/injection, schedule: Q01DX005 (ip), vehicle: saline with Tween-80): 100 % of control
T/C [3]: 95 % of control
T/C [4]: 100 % of control and 94 % of control
T/C [5]: 98 % of control
T/C [6]: 103 % of control

O=[N+]([O-])c1ccc(N/N=C\c2c(Cl)n(-c3ccccc3)c3ccccc23)c([N+](=O)[O-])c1
T/C [3]: 106 % of control
T/C [4]: 100 % of control and 105 % of control
T/C [5]: 109 % of control and 117 % of control
T/C (dose: 100.0 mg/kg/injection, schedule: Q04DX003 (ip), vehicle: saline with Tween-80): 90 % of control
T/C [6]: 109 % of control and 114 % of control
T/C (dose: 400.0 mg/kg/injection, schedule: Q04DX003 (ip), vehicle: saline with Tween-80): 88 % of control

CC/C(Cc1ccc(OC)cc1)=C(/CC)c1ccc(OC)cc1
T/C [7]: 98 % of control
T/C [8]: 92 % of control
T/C [9]: 102 % of control

COc1ccc2c(=O)c(Cc3ccccc3)coc2c1
T/C (dose: 60.0 mg/kg/injection, schedule: Q01DX005 (ip), vehicle: saline with Tween-80): 100 % of control
T/C (dose: 120.0 mg/kg/injection, schedule: Q01DX005 (ip), vehicle: saline with Tween-80): 97 % of control
T/C (dose: 240.0 mg/kg/injection, schedule: Q01DX005 (ip), vehicle: saline with Tween-80): 100 % of control

[Cu+2].[NH-]C(CCC(N)=O)C(=O)O.[NH-]C(CCC(N)=O)C(=O)O (centres undefined)
T/C (dose: 6.25 mg/kg/injection, schedule: Q04DX003 (ip), vehicle: saline): 100 % of control
T/C (dose: 12.5 mg/kg/injection, schedule: Q04DX003 (ip), vehicle: saline): 90 % of control

FC(F)(F)C(OCC1CO1)(c1ccccc1)C(F)(F)F (centres undefined)
T/C (dose: 50.0 mg/kg/injection, schedule: Q01DX009 (ip), vehicle: Klucel (hydroxypropylcellulose) (HPC)): 89 % of control
T/C (dose: 100.0 mg/kg/injection, schedule: Q01DX009 (ip), vehicle: Klucel (hydroxypropylcellulose) (HPC)): 97 % of control
T/C (dose: 200.0 mg/kg/injection, schedule: Q01DX009 (ip), vehicle: Klucel (hydroxypropylcellulose) (HPC)): 97 % of control

CCC(CN1N=C(c2ccc(Cl)cc2)CCC1=O)C(=O)CCC(=O)O (centres undefined)
T/C [7]: 104 % of control
T/C [8]: 105 % of control
T/C [9]: 113 % of control

CC1=Nc2nnnn2N=C(C)C1
T/C (dose: 25.0 mg/kg/injection, schedule: Q01DX005 (ip), vehicle: saline): 104 % of control
T/C (dose: 50.0 mg/kg/injection, schedule: Q01DX005 (ip), vehicle: saline): 92 % of control
T/C (dose: 100.0 mg/kg/injection, schedule: Q01DX005 (ip), vehicle: saline): 95 % of control

O=C(N/N=C/c1cccc2ccccc12)c1cccnc1
T/C (dose: 6.25 mg/kg/injection, schedule: Q01DX009 (ip), vehicle: saline): 100 % of control
T/C (dose: 12.5 mg/kg/injection, schedule: Q01DX009 (ip), vehicle: saline): 89 % of control
T/C (dose: 100.0 mg/kg/injection, schedule: Q01DX009 (ip), vehicle: saline): 98 % of control

COC(=O)c1nc(=S)[nH]c(C(=O)OC)c1C(=O)c1cccnc1
T/C (dose: 60.0 mg/kg/injection, schedule: Q01DX005 (ip), vehicle: saline): 108 % of control
T/C (dose: 120.0 mg/kg/injection, schedule: Q01DX005 (ip), vehicle: saline): 110 % of control

N#CC1=C(N)OC(C2CC2)=C(C#N)C1c1cccs1 (centres undefined)
T/C (dose: 60.0 mg/kg/injection, schedule: Q01DX005 (ip), vehicle: Klucel (hydroxypropylcellulose) (HPC)): 104 % of control
T/C (dose: 120.0 mg/kg/injection, schedule: Q01DX005 (ip), vehicle: Klucel (hydroxypropylcellulose) (HPC)): 100 % of control
T/C (dose: 240.0 mg/kg/injection, schedule: Q01DX005 (ip), vehicle: Klucel (hydroxypropylcellulose) (HPC)): 96 % of control

CCOC(=O)Cc1csc(=S)n1C
T/C [4]: 102 % of control
T/C [5]: 109 % of control
T/C [6]: 109 % of control

CCCCN(CCCC)CCNc1ccc(C)c2sc3cc(C)ccc3c(=O)c12
T/C [4]: 116 % of control
T/C [5]: 102 % of control
T/C [6]: 98 % of control
